# Data: patent US11242537B2, “Method for improving sensitivity of plant to gibberellin inhibitor and use thereof” (CHINA AGRICULTURAL UNIVERSITY, priority 2017, dated 2022)
# Assays:
# ZmCPS::ga1-5 = test: Effect of DPC on plant height (step 4.1), ZmCPS::ga1-5; format: in vivo, Arabidopsis thaliana
# Experimental: (§1) In the following examples, the growth conditions of Arabidopsis thaliana are: culturing in a growth chamber with a photoperiod of 16 h light/8 h dark, a light intensity of 60 μmol/m^2/s, a humidity of 60%-70%, and a temperature of 22° C.
# (§2) The experiment was repeated three times, and the specific steps of each repeated experiment were as follows:
# (§3) Thirty homozygous line plants of the HRP::ga1-1 of step 2 were randomly selected and randomly divided into three groups, ten plants in each group. On the 33rd day of sowing (the day of sowing was recorded as the first day of sowing), the plants of these three groups were treated as follows, respectively one group was sprayed with water (i.e., 0 mg/L DPC solution) and cultured for 12 days to obtain untreated HRP::ga1-1; one group was sprayed with 30 mg/L DPC solution and cultured for 12 days to obtain 30 mg/L DPC-treated HRP::ga1-1; the last group was sprayed with 500 mg/L aqueous DPC solution and cultured for 12 days to obtain 500 mg/L DPC-treated HRP::ga1-1.
# (§4) According to the above method, the homozygous line plants of the HRP::ga1-1 were replaced with the homozygous line plants of the HRP::ga1-5, the homozygous line plants of the ZmCPS::ga1-1, the homozygous line plants of the ZmCPS::ga1-5, the homozygous line plants of the PsSuper1300::ga1-1 and the homozygous line plants of the PsSuper1300::ga1-5 respectively, the other steps were unchanged, and untreated HRP::ga1-5, 30 mg/L DPC-treated HRP::ga1-5, 500 mg/L DPC-treated HRP::ga1-5, untreated ZmCPS::ga1-1, 30 mg/L DPC-treated ZmCPS::ga1-1, 500 mg/L DPC-treated ZmCPS::ga1-1, untreated ZmCPS::ga1-5, 30 mg/L DPC-treated ZmCPS::ga1-5, 500 mg/L DPC-treated ZmCPS::ga1-5, untreated PsSuper1300::ga1-1, 30 mg/L DPC-treated PsSuper1300::ga1-1, 500 mg/L DPC-treated PsSuper1300::ga1-1, untreated PsSuper1300::ga1-5, 30 mg/L DPC-treated PsSuper1300::ga1-5 and 500 mg/L DPC-treated PsSuper1300::ga1-5 were obtained, respectively.
# (§5) The plant heights of the above Arabidopsis thaliana before the treatment (FIG. 1) and after different treatments (FIG. 2 and Table 2) were measured.
# pSuper1300::ga1-5 = test: Effect of DPC on plant height (step 4.1), empty vector pSuper1300::ga1-5; format: in vivo, Arabidopsis thaliana; conditions: for Plant height: 12 days; for Plant height reduction rate: relative to 0 mg/L
# Experimental: as §1, §2, §3, §4, §5
# ga1-5 = test: Effect of DPC on plant height (step 4.1), mutant ga1-5; format: in vivo, Arabidopsis thaliana; conditions: for Plant height: 12 days; for Plant height reduction rate: relative to 0 mg/L
# Experimental: as §1, §2
# When the ga1-1 was cultured to the 33rd day of sowing (the day of sowing was recorded as the first day of sowing), 30 plants were taken and randomly divided into three groups, ten plants in each group and the plants of these three groups were treated as follows, respectively: one group was sprayed with 0 mg/L DPC solution and cultured for 12 days to obtain untreated ga1-1; one group was sprayed with 30 mg/L aqueous DPC solution and cultured for 12 days to obtain 30 mg/L DPC-treated ga1-1; the last group was sprayed with 500 mg/L DPC solution and cultured for 12 days to obtain 500 mg/L DPC-treated ga1-1.
# According to the above method, the ga1-1 was replaced with the ga1-5, the other steps were unchanged, and untreated ga1-5, 30 mg/L DPC-treated ga1-5, and 500 mg/L DPC-treated ga1-5 were obtained, respectively.
# as §5
# HRP::ga1-1 = test: Effects of different concentrations of DPC on plant height (step 4.2), HRP::ga1-1; format: in vivo, Arabidopsis thaliana
# Experimental: as §1, §2
# (§6) Seventy homozygous line plants of the HRP::ga1-1 of step 2 were randomly selected and randomly divided into seven groups, ten plants in each group. On the 33rd day of sowing (the day of sowing was recorded as the first day of sowing), the plants of these seven groups were treated as follows, respectively: one group was sprayed with water (i.e., 0 mg/L aqueous DPC solution) and cultured for 12 days to obtain untreated HRP::ga1-1; one group was sprayed with 30 mg/L aqueous DPC solution and cultured for 12 days to obtain 30 mg/L DPC-treated HRP::ga1-1; one group was sprayed with 50 mg/L aqueous DPC solution and cultured for 12 days to obtain 50 mg/L DPC-treated HRP::ga1-1; one group was sprayed with 100 mg/L aqueous DPC solution and cultured for 12 days to obtain 100 mg/L DPC-treated HRP::ga1-1; one group was sprayed with 300 mg/L aqueous DPC solution and cultured for 12 days to obtain 300 mg/L DPC-treated HRP::ga1-1; one group was sprayed with 500 mg/L aqueous DPC solution and cultured for 12 days to obtain 500 mg/L DPC-treated HRP::ga1-1; one group was sprayed with 1000 mg/L aqueous DPC solution and cultured for 12 days to obtain 1000 mg/L DPC-treated HRP::ga1-1.
# (§7) The plant heights of the differently treated Arabidopsis thaliana were measured respectively (FIG. 3), and the average plant heights are shown in Table 3.
# HRP::ga1-5 = test: Effects of different concentrations of DPC on plant height (step 4.2), HRP::ga1-5; format: in vivo, Arabidopsis thaliana
# Experimental: as §1, §2, §6
# According to the above method, the homozygous line plant of the HRP::ga1-1 was replaced with the pure homozygous line plant of the HRP::ga1-5, and the other steps were unchanged to obtain untreated HRP::ga1-5, 30 mg/L DPC-treated HRP::ga1-5, 50 mg/L DPC-treated HRP::ga1-5, 100 mg/L DPC-treated HRP::ga1-5, 300 mg/L DPC-treated HRP::ga1-5, 500 mg/L DPC-treated HRP::ga1-5 and 1000 mg/L DPC-treated HRP::ga1-5, respectively.
# as §7
# [1] = test system: transgenic zmcps-ko line with the HRP, line No. 443; test: Sensitivity of transgenic zmcps-ko line with the HRP to DPC, line No. 443; format: in vivo, maize
# Text: (§8) The GV3101-pSuper1300-HRP of Example 1 was transformed into the ZmCPSKO maize embryos of step 1.1 by using the Agrobacterium to infect the maize immature embryos, and positive transgenic maize with the HRP was obtained by screening, and the transgenic maize with the HRP contained the target gene HRP. The GV3101-pSuper1300-ZmCPS and GV3101-pSuper1300 were used as controls, and the ZmCPS control maize and empty vector control maize were obtained, respectively.
# (§9) The WT and transgenic plants were sprayed with DPC during jointing stage to test their DPC sensitivity: the whole plant was sprayed with 500 ppm […] DPC when the maize was grown to 7 leaf expansion phase and 12 leaf expansion phase. Plant height and ear height were measured 2 weeks after treatment and after tasseling.
# [2] = test system: transgenic zmcps-ko line with the HRP, line No. 614; test: Sensitivity of transgenic zmcps-ko line with the HRP to DPC, line No. 614; format: in vivo, maize; conditions: 500 ppm (5 mM) DPC spray
# Text: as §8, §9
# [3] = test system: transgenic zmcps-ko line with the HRP, line No. 623; test: Sensitivity of transgenic zmcps-ko line with the HRP to DPC, line No. 623; format: in vivo, maize; conditions: 500 ppm (5 mM) DPC spray
# Text: as §8, §9
# B73 (WT) = test: Sensitivity of wild type maize B73 to DPC; format: in vivo; conditions: 500 ppm (5 mM) DPC spray
# Experimental: as §9
# maize Zhengdan 958 = conditions: 1000 mg/L DPC (Chen yin, 2012); cited from earlier work
# [4] = 30 mg/L DPC spray, 12 days (step 4.2)
# [5] = 500 mg/L DPC spray, 12 days (step 4.2)
# [6] = line No. 443, 500 ppm (5 mM) DPC spray
compound,measurement,setting,value
"C[N+]1(C)CCCCC1.[Cl-] [DPC, 1,1-dimethylpiperidinium chloride]",Plant height reduction rate,"ZmCPS::ga1-5; 500 mg/L DPC, relative to 0 mg/L",0.83%
same,Effect of DPC on plant height (in words),ZmCPS::ga1-5; 30 and 500 mg/L DPC,no effect
same,Plant height,pSuper1300::ga1-5; 30 mg/L DPC spray,6.54 ± 0.20 cm
same,Plant height reduction rate,pSuper1300::ga1-5; 30 mg/L DPC,5.90%
same,Plant height,pSuper1300::ga1-5; 500 mg/L DPC spray,6.21 ± 0.14 cm
same,Plant height reduction rate,pSuper1300::ga1-5; 500 mg/L DPC,10.65%
same,Plant height,ga1-5; 30 mg/L DPC spray,6.55 ± 0.10 cm
same,Plant height reduction rate,ga1-5; 30 mg/L DPC,6.83%
same,Plant height,ga1-5; 500 mg/L DPC spray,6.40 ± 0.12 cm
same,Plant height reduction rate,ga1-5; 500 mg/L DPC,8.96%
same,Plant height (average),HRP::ga1-1; [4],9.714 cm
same,Plant height (average),"HRP::ga1-1; 50 mg/L DPC spray, 12 days",9.314 cm
same,Plant height (average),"HRP::ga1-1; 100 mg/L DPC spray, 12 days",9.343 cm
same,Plant height (average),"HRP::ga1-1; 300 mg/L DPC spray, 12 days",8.857 cm
same,Plant height (average),HRP::ga1-1; [5],8.586 cm
same,Plant height (average),"HRP::ga1-1; 1000 mg/L DPC spray, 12 days",7.243 cm
same,Plant height (average),HRP::ga1-5; [4],11.93 cm
same,Plant height (average),"HRP::ga1-5; 50 mg/L DPC spray, 12 days",9.843 cm
same,Plant height (average),"HRP::ga1-5; 100 mg/L DPC spray, 12 days",10.14 cm
same,Plant height (average),"HRP::ga1-5; 300 mg/L DPC spray, 12 days",9.957 cm
same,Plant height (average),HRP::ga1-5; [5],9.857 cm
same,Plant height (average),"HRP::ga1-5; 1000 mg/L DPC spray, 12 days",7.357 cm
same,Sensitivity of the plant to DPC (in words),"[1]; complementary plant, line No. 443 (FIG. 5), 500 ppm (5 mM) DPC spray",sensitive
same,Ear height,[1]; [6],80.0
same,Plant height at tasseling stage,[1]; [6],187.9
same,Plant height at 2 weeks after treatment,"[1]; line No. 443, whole plant sprayed with 500 ppm (5 mM) DPC at 7 and 12 leaf expansion phase",128.9
same,Ear height,[2],80.5
same,Plant height at 2 weeks after treatment,[2],133.2
same,Plant height at tasseling stage,[2],197.9
same,Ear height,[3],75.2
same,Plant height at 2 weeks after treatment,[3],133.5
same,Plant height at tasseling stage,[3],182.8
same,Ear height,B73 (WT); B73 wild type,91.3
same,Plant height at 2 weeks after treatment,B73 (WT); B73 wild type,151
same,Plant height at tasseling stage,B73 (WT); B73 wild type,207.5
same,Sensitivity of the plant to DPC (in words),B73 (WT); WT (B73),insensitive
same,Plant height and stem diameter compared with control,maize Zhengdan 958,no significant difference
